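Test compounds were applied to cells in 96-well plates for 48 hours at 5 doses. The concentration for 50% growth inhibition is given as GI50.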 Activity calls are given as the source filed them. Rule as the data show it: active = GI50 up to about 1.1 µM and inactive = higher.
Assays:
Assay in all cases: growth of human tumour cells (NCI), 48 h
[1] = tested on: HOP-18
[2] = tested on: DLD-1
[3] = tested on: 786-0
[4] = tested on: NCI-H522
[5] = tested on: IGROV-1
[6] = tested on: SN12C
[7] = tested on: MDA-MB-435
[8] = tested on: U-251
[9] = tested on: MDA-MB-231
[10] = tested on: OVCAR-5
[11] = tested on: DU-145
[12] = tested on: SNB-78
[13] = tested on: Hs-578T
[14] = tested on: HCC 2998
[15] = tested on: EKVX
[16] = tested on: SK-OV-3
[17] = tested on: SF-295
[18] = tested on: SNB-75
[19] = tested on: OVCAR-8
[20] = tested on: SK-MEL-5
[21] = tested on: OVCAR-4
[22] = tested on: SF-539
[23] = tested on: LOX IMVI
[24] = tested on: SK-MEL-28
[25] = tested on: NCI/ADR-RES
[26] = tested on: HT-29
[27] = tested on: SW-620
[28] = tested on: HOP-92
[29] = tested on: SF-268
[30] = tested on: RXF 393
[31] = tested on: PC-3
[32] = tested on: MDA-N
[33] = tested on: KM12
[34] = tested on: LXFL 529
[35] = tested on: DMS-114
[36] = tested on: DMS-273
[37] = tested on: NCI-H23
[38] = tested on: CCRF-CEM
[39] = tested on: NCI-H226
[40] = tested on: KM-20L2
[41] = tested on: Malme-3M
[42] = tested on: MCF7
[43] = tested on: CAKI-1
[44] = tested on: NCI-H460
[45] = tested on: M19-MEL
[46] = tested on: TK-10
[47] = tested on: A498
[48] = tested on: UACC-257
[49] = tested on: MOLT-4
[50] = tested on: ACHN
[51] = tested on: HCT-15
[52] = tested on: XF498
[53] = tested on: K562
[54] = tested on: UACC-62
[55] = tested on: SNB-19
[56] = tested on: SR
[57] = tested on: HOP-62
[58] = tested on: A549
[59] = tested on: T47D
[60] = tested on: COLO 205
[61] = tested on: HCT-116
[62] = tested on: M14
[63] = tested on: RPMI-8226
[64] = tested on: UO-31
[65] = tested on: BT-549
[66] = tested on: OVCAR-3
[67] = tested on: HL-60
[68] = tested on: SK-MEL-2
[69] = tested on: RXF 631

## CCOC(=O)N1C/C(=C\c2ccccc2)C(=O)/C(=C/c2ccccc2)C1
[1]
  GI50: 20.3 µM (inactive)
[2]
  GI50: 2.56 µM (inactive)
[3]
  GI50: 2.9 µM (inactive)
[4]
  GI50: 2.56 µM (inactive)
[5]
  GI50: 5.02 µM (inactive)
[6]
  GI50: 2.17 µM (inactive)
[7]
  GI50: 2.48 µM (inactive)
[8]
  GI50: 1.45 µM (inactive)
[9]
  GI50: 2.24 µM (inactive)
[10]
  GI50: 6.04 µM (inactive)
[11]
  GI50: 8.81 µM (inactive)
[12]
  GI50: 19.8 µM (inactive)
[13]
  GI50: 2.4 µM (inactive)
[14]
  GI50: 1.94 µM (inactive)
[15]
  GI50: 10.6 µM (inactive)
[16]
  GI50: 9.2 µM (inactive)
[17]
  GI50: 3.01 µM (inactive)
[18]
  GI50: 6.97 µM (inactive)
[19]
  GI50: 2.82 µM (inactive)
[20]
  GI50: 2.97 µM (inactive)
[21]
  GI50: 2.37 µM (inactive)
[22]
  GI50: 5.08 µM (inactive)
[23]
  GI50: 1.7 µM (inactive)
[24]
  GI50: 2.39 µM (inactive)
[25]
  GI50: 9.12 µM (inactive)
[26]
  GI50: 1.49 µM (inactive)
[27]
  GI50: 1.4 µM (inactive)
[28]
  GI50: 6.56 µM (inactive)
[29]
  GI50: 4.17 µM (inactive)
[30]
  GI50: 4.01 µM (inactive)
[31]
  GI50: 2.16 µM (inactive)
[32]
  GI50: 1.72 µM (inactive)
[33]
  GI50: 2.03 µM (inactive)
[34]
  GI50: 4.99 µM (inactive)
[35]
  GI50: 3.27 µM (inactive)
[36]
  GI50: 2.34 µM (inactive)
[37]
  GI50: 5.31 µM (inactive)
[38]
  GI50: 1.51 µM (inactive)
[39]
  GI50: 4.56 µM (inactive)
[40]
  GI50: 7.71 µM (inactive)
[41]
  GI50: 7.36 µM (inactive)
[42]
  GI50: 0.955 µM (active)
[43]
  GI50: 2.22 µM (inactive)
[44]
  GI50: 4 µM (inactive)
[45]
  GI50: 1.57 µM (inactive)
[46]
  GI50: 8.34 µM (inactive)
[47]
  GI50: 18 µM (inactive)
[48]
  GI50: 4.46 µM (inactive)
[49]
  GI50: 1.96 µM (inactive)
[50]
  GI50: 3.84 µM (inactive)
[51]
  GI50: 2.32 µM
[52]
  GI50: 12.8 µM (inactive)
[53]
  GI50: 1.44 µM (inactive)
[54]
  GI50: 2.66 µM (inactive)
[55]
  GI50: 4.72 µM (inactive)
[56]
  GI50: 0.873 µM (active)
[57]
  GI50: 4.41 µM (inactive)
[58]
  GI50: 12.3 µM (inactive)
[59]
  GI50: 3.65 µM (inactive)
[60]
  GI50: 4.7 µM (inactive)
[61]
  GI50: 1.14 µM (inactive)
[62]
  GI50: 2.77 µM (inactive)
[63]
  GI50: 0.182 µM (active)
[64]
  GI50: 5.85 µM (inactive)
[65]
  GI50: 2.3 µM (inactive)
[66]
  GI50: 4.23 µM (inactive)
[67]
  GI50: 1.24 µM (inactive)
[68]
  GI50: 6.7 µM (inactive)

## CN(C)c1ccc2c(=O)c3ccccc3oc2n1
[2]
  GI50: 73.5 µM (inactive)
[3]
  GI50: > 100 µM (inactive)
[4]
  GI50: > 100 µM (inactive)
[5]
  GI50: 93.1 µM (inactive)
[6]
  GI50: > 100 µM (inactive)
[10]
  GI50: > 100 µM (inactive)
[12]
  GI50: > 100 µM (inactive)
[14]
  GI50: > 100 µM (inactive)
[15]
  GI50: 35 µM (inactive)
[16]
  GI50: > 100 µM (inactive)
[17]
  GI50: > 100 µM (inactive)
[18]
  GI50: > 100 µM (inactive)
[19]
  GI50: > 100 µM (inactive)
[20]
  GI50: 38.6 µM (inactive)
[21]
  GI50: > 100 µM (inactive)
[23]
  GI50: > 100 µM (inactive)
[24]
  GI50: > 100 µM (inactive)
[27]
  GI50: > 100 µM (inactive)
[28]
  GI50: > 100 µM (inactive)
[29]
  GI50: > 100 µM (inactive)
[30]
  GI50: > 100 µM (inactive)
[69]
  GI50: > 100 µM (inactive)
[33]
  GI50: 69.7 µM (inactive)
[34]
  GI50: 84.3 µM (inactive)
[35]
  GI50: 82.2 µM (inactive)
[36]
  GI50: > 100 µM (inactive)
[37]
  GI50: > 100 µM (inactive)
[38]
  GI50: > 100 µM (inactive)
[40]
  GI50: > 100 µM (inactive)
[41]
  GI50: > 100 µM (inactive)
[43]
  GI50: > 100 µM (inactive)
[44]
  GI50: > 100 µM (inactive)
[45]
  GI50: > 100 µM (inactive)
[46]
  GI50: > 100 µM (inactive)
[48]
  GI50: > 100 µM (inactive)
[49]
  GI50: > 100 µM (inactive)
[50]
  GI50: 42 µM (inactive)
[51]
  GI50: > 100 µM
[52]
  GI50: > 100 µM (inactive)
[53]
  GI50: > 100 µM (inactive)
[54]
  GI50: > 100 µM (inactive)
[55]
  GI50: > 100 µM (inactive)
[57]
  GI50: 56.6 µM (inactive)
[58]
  GI50: > 100 µM (inactive)
[60]
  GI50: > 100 µM (inactive)
[62]
  GI50: > 100 µM (inactive)
[63]
  GI50: > 100 µM (inactive)
[64]
  GI50: 69.2 µM (inactive)
[66]
  GI50: 91.6 µM (inactive)
[67]
  GI50: > 100 µM (inactive)
[68]
  GI50: > 100 µM (inactive)

— ChEMBL document CHEMBL1201862, “PubChem BioAssay data set” (2004)
